Assay results taken from patent publication US10711000B2 (Fronthera U.S. Pharmaceuticals LLC, priority 2018, dated 2020).
Like-named read-outs stand apart in the source and are kept apart here.

Biological target: T1, Autotaxin (Homo sapiens, UniProt Q13822)
T1 construct: from tissue; host or cells: pooled human plasma
Assay: LPA formation in pooled human plasma (ex vivo autotaxin inhibition)
Format: biochemical
Conditions: 2 hours incubation
Description: Autotaxin is a plasma phosphodiesterase that converts lysophosphatidylcholine (LPC) into lysophosphatidic acid (LPA), therefore LPA formation was used to evaluate the potency of autotaxin inhibitors. The potency of compound was evaluated ex vivo in pooled human plasma.
Various concentrations of compound were incubated with plasma for 2 hours, and the LPA 18:2 and 20:4 concentration was measured by LC/MS/MS. To determine the LPA18:2 or 20:4 concentration in study plasma, a 10× calibration standard of LPA 18:2 or 20:4 were prepared by serial dilution in butyl alcohol: 20000, 10000, 5000, 2000, 1000, 500, 200, 100, 50, 20, and 10 ng/mL. 3 μL of calibration standard solution was added into 27.0 μL of blank plasma in 1.5-mL microcentrifuge tubes to generate 1× calibration standards. The 30.0 μL of standards or study plasma was added into 1.5-mL microcentrifuge tubes. 200 μL of butyl alcohol (containing 25.0 ng/mL LPA17:0 for internal control) was added into each 1.5-mL microcentrifuge tube containing study plasma or calibration standards. After vortexing for 1 minute and centrifuging at 10000 rpm for 10 min, 180 μL of supernatant was transferred into a 96-well plate and the LPA18:2 concentration in the plasma was quantitated using LC/MS/MS together with standards. Briefly, 8 μL of the solutions were injected for LC-MS/MS analysis using an ACQUITY UPLC BEH C18 column (2.1×50 mm, 1.7 μm) with mobile phase A [20 mM NH4OAC in water (0.1% FA)] and phase B [5 mM NH4OAC in water/0.2% FA in ACN=5:95]. Mass spectrometer parameters optimization for LPA18:2 were performed by Deprotonated molecular ion at m/z 433.2 ([M−H]^−) for LPA18:2, 457.2 for LPA20:4 and abundant product ion at m/z 152.8 for both LPA18:2 and LPA20:4 were obtained. Quantitative data were acquired in multiple reaction monitoring (MRM) negative electrospray ionization mode
The inhibition rate of LPA formation was determined by comparing the levels of LPA in treated and non-treated plasma. The data was plotted against the corresponding concentration of compound and the IC50 was calculated through non-linear regression fitting.

[1] = LPA 18:2 by LC/MS/MS, read-out: LPA formation (18:2) (IC50)
[2] = LPA 20:4 by LC/MS/MS, read-out: LPA formation (20:4) (IC50)

Row | SMILES | IC50 [1] [nM] | IC50 [2] [nM]
1 | CCc1nn2c(C)cc(N3CC4(CN(C(=O)[C@@H]5COC[C@H]5O)C4)C3)cc2c1N(C)c1nc(-c2ccc(F)cc2)c(C#N)s1 (stereo in doubt) [Example 74, 2-((2-ethyl-5-(6-(4-hydroxytetrahydrofuran-3-carbonyl)-2,6-diazaspiro[3.3]heptan-2-yl)-7-methylpyrazolo[1,5-a]pyridin-3-yl)(methyl)amino)-4-(4-fluorophenyl)thiazole-5-carbonitrile] | 100 to 500 | 100 to 500
2 | CCn1nc2c(C)cc(N3CCN(CC(=O)N4CC(O)C4)CC3)cc2c1N(C)c1nc(-c2ccc(F)cc2)c(C#N)s1 [Compound 125, 2-((2-ethyl-5-(4-(2-(3-hydroxyazetidin-1-yl)-2-oxoethyl)piperazin-1-yl)-7-methyl-2H-indazol-3-yl)(methyl)amino)-4-(4-fluorophenyl)thiazole-5-carbonitrile] | 500 to 1000 | 500 to 1000
3 | CCc1nn2c(C)cc(N3CC4(CN(C(=O)N5CCN(C)CC5)C4)C3)cc2c1N(C)c1nc(-c2ccc(F)cc2)c(C#N)s1 [Example 32, 2-((2-ethyl-7-methyl-5-(6-(4-methylpiperazine-1-carbonyl)-2,6-diazaspiro[3.3]heptan-2-yl)pyrazolo[1,5-a]pyridin-3-yl)(methyl)amino)-4-(4-fluorophenyl)thiazole-5-carbonitrile] | ≤ 100 | ≤ 100
4 | CCc1nn2ccc(N3CCC4(CC3)CC(C(=O)N3CC(O)C3)C4)cc2c1N(C)c1nc(-c2ccc(F)cc2)c(C#N)s1 [Example 6, 2-[[2-ethyl-5-[2-(3-hydroxyazetidine-1-carbonyl)-7-azaspiro[3.5]nonan-7-yl]pyrazolo[1,5-a]pyridin-3-yl]-methyl-amino]-4-(4-fluorophenyl)thiazole-5-carbonitrile] | ≤ 100 | ≤ 100
5 | CCc1nn2ccc(N3CC4(CC(C(=O)N5CC(O)C5)C4)C3)cc2c1N(C)c1nc(-c2ccc(F)cc2)c(C#N)s1 [Example 8, 2-[[2-ethyl-5-[6-(3-hydroxyazetidine-1-carbonyl)-2-azaspiro[3.3]heptan-2-yl]pyrazolo[1,5-a]pyridin-3-yl]-methyl-amino]-4-(4-fluorophenyl)thiazole-5-carbonitrile] | 100 to 500 | 100 to 500
6 | CCc1nn2cc(F)c(N3CC4(CN(C(=O)N5CCN(C)CC5)C4)C3)cc2c1N(C)c1nc(-c2ccc(F)cc2)c(C#N)s1 [Example 105, 2-((2-ethyl-6-fluoro-5-(6-(4-methylpiperazine-1-carbonyl)-2,6-diazaspiro[3.3]heptan-2-yl)pyrazolo[1,5-a]pyridin-3-yl)(methyl)amino)-4-(4-fluorophenyl)thiazole-5-carbonitrile] | ≤ 100 | ≤ 100
7 | Cc1cc(N2CCN(C3COCC3O)CC2)cc2c(N(C)c3nc(-c4ccc(F)cc4)c(C#N)s3)c(C3CC3)nn12 (stereo not shown) [Example 92] | 100 to 500 | 100 to 500
8 | CCc1nn2c(C)cc(N3CC4(CN(C(=O)C5CCOCC5)C4)C3)cc2c1N(C)c1nc(-c2ccc(F)cc2)c(C#N)s1 [Example 41, 2-((2-ethyl-7-methyl-5-(6-(tetrahydro-2H-pyran-4-carbonyl)-2,6-diazaspiro[3.3]heptan-2-yl)pyrazolo[1,5-a]pyridin-3-yl)(methyl)amino)-4-(4-fluorophenyl)thiazole-5-carbonitrile] | ≤ 100 | ≤ 100
9 | Cc1cn2nc(C3CC3)c(N(C)c3nc(-c4ccc(F)cc4)c(C#N)s3)c2cc1N1CCN(CC(=O)N2CC(O)C2)CC1 [Example 100, 2-((2-cyclopropyl-5-(4-(2-(3-hydroxyazetidin-1-yl)-2-oxoethyl)piperazin-1-yl)-6-methylpyrazolo[1,5-a]pyridin-3-yl)(methyl)amino)-4-(4-fluorophenyl)thiazole-5-carbonitrile] | ≤ 100 | ≤ 100
10 | CCc1nn2c(C)cc(N3CCN(CC(=O)N4CC(O)C4)CC3)cc2c1N(C)c1nc(-c2ccc(F)cc2)c(C#N)s1 [Example 23, 2-((2-ethyl-5-(4-(2-(3-hydroxyazetidin-1-yl)-2-oxoethyl)piperazin-1-yl)-7-methylpyrazolo[1,5-a]pyridin-3-yl)(methyl)amino)-4-(4-fluorophenyl)thiazole-5-carbonitrile] | 100 to 500 | 100 to 500
11 | CCc1nn2ccc(N3CC4(CN(C(=O)N5CC(O)C5)C4)C3)cc2c1N(C)c1nc(-c2ccc(F)cc2)c(C#N)s1 [Example 11, 2-((2-ethyl-5-(6-(3-hydroxyazetidine-1-carbonyl)-2,6-diazaspiro[3.3]heptan-2-yl)pyrazolo[1,5-a]pyridin-3-yl)(methyl)amino)-4-(4-fluorophenyl)thiazole-5-carbonitrile] | ≤ 100 | ≤ 100
12 | CCc1nn2c(C)cc(N3CC4(CN(C(=O)c5cnco5)C4)C3)cc2c1N(C)c1nc(-c2ccc(F)cc2)c(C#N)s1 [Example 57, 2-((2-ethyl-7-methyl-5-(6-(oxazole-5-carbonyl)-2,6-diazaspiro[3.3]heptan-2-yl)pyrazolo[1,5-a]pyridin-3-yl)(methyl)amino)-4-(4-fluorophenyl)thiazole-5-carbonitrile] | ≤ 100 | ≤ 100
13 | CCc1nn2c(C)cc(N3CC4(CN(C(=O)[C@H](C)O)C4)C3)cc2c1N(C)c1nc(-c2ccc(F)cc2)c(C#N)s1 [Example 62, (S)-2-((2-ethyl-5-(6-(2-hydroxypropanoyl)-2,6-diazaspiro[3.3]heptan-2-yl)-7-methylpyrazolo[1,5-a]pyridin-3-yl)(methyl)amino)-4-(4-fluorophenyl)thiazole-5-carbonitrile] | 100 to 500 | 100 to 500
14 | CCc1nn2ccc(N3CCC4(CCN(C(=O)N5CC(O)C5)C4)CC3)cc2c1N(C)c1nc(-c2ccc(F)cc2)c(C#N)s1 [Example 18, 2-((2-ethyl-5-(2-(3-hydroxyazetidine-1-carbonyl)-2,8-diazaspiro[4.5]decan-8-yl)pyrazolo[1,5-a]pyridin-3-yl)(methyl)amino)-4-(4-fluorophenyl)thiazole-5-carbonitrile] | ≤ 100 | ≤ 100
15 | CCn1nc2nc(C)c(N3CC4(CN(C(=O)[C@H]5CCOC5)C4)C3)cc2c1N(C)c1nc(-c2ccc(F)cc2)c(C#N)s1 [Compound 121, (S)-2-((2-ethyl-6-methyl-5-(6-(tetrahydrofuran-3-carbonyl)-2,6-diazaspiro[3.3]heptan-2-yl)-2H-pyrazolo[3,4-b]pyridin-3-yl)(methyl)amino)-4-(4-fluorophenyl)thiazole-5-carbonitrile] | ≤ 100 | ≤ 100
16 | CCc1nn2c(C)cc(N3CCC4(CCN(C(=O)N5CC(O)C5)C4)CC3)cc2c1N(C)c1nc(-c2ccc(F)cc2)c(C#N)s1 [Example 37, 2-((2-ethyl-5-(2-(3-hydroxyazetidine-1-carbonyl)-2,8-diazaspiro[4.5]decan-8-yl)-7-methylpyrazolo[1,5-a]pyridin-3-yl)(methyl)amino)-4-(4-fluorophenyl)thiazole-5-carbonitrile] | ≤ 100 | ≤ 100
17 | CCc1nn2c(C)cc(N3CC4(CN(C(=O)C5CCCO5)C4)C3)cc2c1N(C)c1nc(-c2ccc(F)cc2)c(C#N)s1 (stereo not shown) [Example 38, 2-((2-ethyl-7-methyl-5-(6-(tetrahydrofuran-2-carbonyl)-2,6-diazaspiro[3.3]heptan-2-yl)pyrazolo[1,5-a]pyridin-3-yl)(methyl)amino)-4-(4-fluorophenyl)thiazole-5-carbonitrile] | ≤ 100 | ≤ 100
18 | CCc1nn2c(C)cc(N3CC4(C3)CN(S(C)(=O)=O)C4)cc2c1N(C)c1nc(-c2ccc(F)cc2)c(C#N)s1 [Example 71] | 100 to 500 | 100 to 500
19 | Cc1cc(N2CCC(N3CC(O)C3)CC2)cc2c(N(C)c3nc(-c4ccc(F)cc4)c(C#N)s3)c(C3CC3)nn12 [Example 93, 2-((2-cyclopropyl-5-(4-(3-hydroxyazetidin-1-yl)piperidin-1-yl)-7-methylpyrazolo[1,5-a]pyridin-3-yl)(methyl)amino)-4-(4-fluorophenyl)thiazole-5-carbonitrile] | 100 to 500 | 100 to 500
20 | CCc1nn2c(C)cc(N3CC4(CN(C(=O)N5CC(O)C5)C4)C3)cc2c1N(C)c1nc(-c2ccc(F)cc2)c(C#N)s1 [Example 28, 2-((2-ethyl-5-(6-(3-hydroxyazetidine-1-carbonyl)-2,6-diazaspiro[3.3]heptan-2-yl)-7-methylpyrazolo[1,5-a]pyridin-3-yl)(methyl)amino)-4-(4-fluorophenyl)thiazole-5-carbonitrile] | ≤ 100 | ≤ 100
